The target of one assay is WBA II. The format is binding. The settings on record: read-out: KD [μmol]; cited from earlier work.
Assay [1] is described as follows: Isothermal titration calorimetry, CCL2 wild type and variants binding to fucosylated chitobiose. How it is done: ITC experiments were performed on a VP-ITC instrument (MicroCal). The calorimeter was calibrated according to the manufacturer's instructions. Protein and carbohydrate samples were dialyzed against NMR buffer at room temperature using a 3.5 kDa membrane (Spectra/Por) and Micro DispoDialyzer (100 Da cutoff; Harvard Apparatus), respectively. The disaccharide Fucα1,3GlcNAc-OMe was not dialyzed but dissolved in NMR buffer. The sample cell (1.4 mL) was loaded with 70 µM protein; carbohydrate concentration in the syringe was 2–4 mM. A titration experiment typically consisted of 30–50 injections, each of 3 µL volume and 6 s duration, with a 6.7 min interval between additions. Stirring rate was 307 rpm. Raw data were integrated, corrected for nonspecific heats, normalized for the molar concentration, and analyzed according to a 1∶1 binding model.
On the technique in general: ITC needs no label: the signal is the heat of the interaction.

The test system of another assay is C. elegans wildtype (N2). The assay is described as follows: C. elegans liquid toxicity assay, feeding on recombinant E. coli. It is filed as in vivo, Caenorhabditis elegans.
The next assay relates to C. elegans bre-1(ye4). Described as above. The format is in vivo, Caenorhabditis elegans. The settings on record: bre-1(ye4) mutant, vs vector control.
Assay [2] concerns C. elegans fut-1(ok892). Described as above. As to conditions: fut-1(ok892) mutant. The format is in vivo, Caenorhabditis elegans.
The test system of assay [3] is C. elegans fut-6(ok475)fut-1(ok892). The description is as above. As to conditions: fut-6(ok475)fut-1(ok892) double mutant, vs vector control. The format is in vivo, Caenorhabditis elegans.
The subject of a further assay is D. melanogaster. As to the kind of experiment: Biotoxicity assay with purified protein added to the rearing medium. The format is in vivo, Drosophila melanogaster.
The subject of another assay is A. aegypti larvae. As to the kind of experiment: Biotoxicity assay with recombinant E. coli. The format is in vivo, Aedes aegypti. As to conditions: CCL2-expressing E. coli vs vector control.
The test system of another assay is A. castellanii. As to the kind of experiment: Biotoxicity assay with recombinant E. coli. It is filed as in vivo, Acanthamoeba castellanii. As to conditions: CCL2-expressing E. coli vs vector control.
The subject of assay [4] is C. elegans fut-1(ok892). The assay is described as follows: CCL2 nematotoxicity assay in solid media. The format is in vivo, Caenorhabditis elegans.
A further assay has as its target Jacalin. As to the kind of experiment: Literature thermodynamic binding data of lectin-carbohydrate interactions compiled in Table S6 for comparison; conditions not given. On the set-up: method as in values quoted from other papers. The settings on record: read-out: KD [μmol]; cited from earlier work.
In the next assay the target is ConA. Described as above. The arrangement: method as in values quoted from other papers. The settings on record: read-out: KD [μmol]; cited from earlier work.
In assay [5] the target is Cholera toxin B subunit (CTB). The format is binding. The settings on record: read-out: KD [μmol]; cited from earlier work.
The target of a further assay is T1, Y57A (Coprinopsis cinerea, UniProt B3GA02, Y57A).
T1 construct: gene ccl2
The assay is described as follows: biochemical. The format is binding.

For another assay, the target named is T2, W78A (Coprinopsis cinerea, UniProt B3GA02, W78A).
T2 construct: gene ccl2
As to the kind of experiment: biochemical. The format is binding.

In a further assay the target is T3, L87A (Coprinopsis cinerea, UniProt B3GA02, L87A).
T3 construct: gene ccl2
The assay is described as follows: biochemical. The format is binding.

For another assay, the target named is T4, N90A (Coprinopsis cinerea, UniProt B3GA02, N90A).
T4 construct: gene ccl2
As to the kind of experiment: biochemical. It is filed as binding.

The target in the next assay is T5, N91A (Coprinopsis cinerea, UniProt B3GA02, N91A).
T5 construct: gene ccl2
The assay is described as follows: biochemical. The format is binding.

Another assay addresses T6, Y92A (Coprinopsis cinerea, UniProt B3GA02, Y92A).
T6 construct: gene ccl2
As to the kind of experiment: biochemical. It is filed as binding.

The target of the next assay is T7, V93A (Coprinopsis cinerea, UniProt B3GA02, V93A).
T7 construct: gene ccl2
As to the kind of experiment: biochemical. The format is binding.

The next assay addresses T8, W94A (Coprinopsis cinerea, UniProt B3GA02, W94A).
T8 construct: gene ccl2
The assay is described as follows: biochemical. It is filed as binding.

Another assay concerns the target T9, K109A (Coprinopsis cinerea, UniProt B3GA02, K109A).
T9 construct: gene ccl2
As to the kind of experiment: biochemical. It is filed as binding.

The mark [6] stands for this setting: ITC, 299K, protein binding to GlcNAcβ1,4[Fucα1,3]GlcNAcβ1-sp.
Where [7] appears, read: ITC, 299K, protein binding to GlcNAcβ1,4[Fucα1,3]GlcNAcβ1-sp, listed as Wild type.
[8] abbreviates: Table S6, ligand GlcNAc1,4[Fuc1,3]GlcNAc-O-spacer, This study.
Setting [9] is: purified CCL2, relative to the control (BSA).

Some results are limits rather than exact numbers.

T6 sequence (B3GA02 2-142 Y92A limits assumed): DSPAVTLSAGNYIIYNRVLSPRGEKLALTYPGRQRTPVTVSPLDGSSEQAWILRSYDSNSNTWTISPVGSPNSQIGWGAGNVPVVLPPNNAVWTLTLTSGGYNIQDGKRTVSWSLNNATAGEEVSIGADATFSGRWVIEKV
T4 sequence (B3GA02 2-142 N90A limits assumed): as the sequence (B3GA02 2-142 Y92A limits assumed) above, with N89A, A91Y counted along it
T8 sequence (B3GA02 2-142 W94A limits assumed): as the sequence (B3GA02 2-142 Y92A limits assumed) above, with A91Y, W93A counted along it
T9 sequence (B3GA02 2-142 K109A limits assumed): as the sequence (B3GA02 2-142 Y92A limits assumed) above, with A91Y, K108A counted along it
T7 sequence (B3GA02 2-142 V93A limits assumed): as the sequence (B3GA02 2-142 Y92A limits assumed) above, with A91Y, V92A counted along it
T3 sequence (B3GA02 2-142 L87A limits assumed): as the sequence (B3GA02 2-142 Y92A limits assumed) above, with L86A, A91Y counted along it
T2 sequence (B3GA02 2-142 W78A limits assumed): as the sequence (B3GA02 2-142 Y92A limits assumed) above, with W77A, A91Y counted along it
T5 sequence (B3GA02 2-142 N91A limits assumed): as the sequence (B3GA02 2-142 Y92A limits assumed) above, with N90A, A91Y counted along it
T1 sequence (B3GA02 2-142 Y57A limits assumed): as the sequence (B3GA02 2-142 Y92A limits assumed) above, with Y56A, A91Y counted along it

As usually defined, the Kd is the constant that tells how readily two partners part at equilibrium. On to `CO[C@@H]1O[C@H](CO)[C@@H](O[C@@H]2O[C@H](CO)[C@H](O)[C@H](O)[C@H]2O[C@@H]2O[C@@H](C)[C@@H](O)[C@@H](O)[C@@H]2O)[C@H](O)[C@H]1NC(C)=O` [Fuc1,2Gal1,4GlcNAcOMe, Fucα1,2Galβ1,4GlcNAc methyl glycoside], for which the dissociation constant Kd on WBA II was 3.2 µM.

Take “CCL2: novel fruiting body lectin from the ink cap mushroom Coprinopsis cinerea, recombinant, monomeric β-trefoil”: in assay [1] (setting [6]), the affinity, expressed as Kd, was 1.4 µM; the ΔH was -12 kcal/mol; the “−TΔS” value amounted to 3.82 kcal/mol. Besides, in [1] (setting [7]), the ΔH was -11.9 kcal/mol and the “−TΔS” value was determined as 3.9 kcal/mol. Also, in assay [1] (setting [8]), the “–TΔS” value was 3.9 kcal/mol and the “–ΔH” value came to 11.9 kcal/mol. Besides, the “reduction of development of L1 larvae” value in the assay on C. elegans wildtype (N2) (30% of CCL2-expressing E. coli among the fed bacteria) was “more than 95%”. Further, the “toxicity: development of L1 larvae vs vector control” value in the assay with C. elegans wildtype (N2) (N2 fed E. coli expressing the lectin, L4 stage after 48 h) is listed as “stopped the development of all wildtype (N2) L1 larvae”. Moreover, the “susceptibility to CCL2-mediated toxicity” value in the assay on C. elegans bre-1(ye4) was “not and completely resistant”. The “larvae reaching L4 stage” value with C. elegans fut-1(ok892) [2] (after 48 hours) is recorded as “half”. Also, in the assay with C. elegans fut-1(ok892) [2] (vs vector control), the “susceptibility to CCL2-mediated toxicity” value is “partially resistant”. Besides, the “susceptibility to CCL2-mediated toxicity” value in assay [3] was “not and completely resistant”. Further, the “development of pupae and flies vs control” value in the assay on D. melanogaster (purified CCL2, BSA control) is on record as “significantly different from the control”. Also, in the assay with D. melanogaster (setting [9]), the “delay in development of flies” value is reported as 10 fold and the “delay in development of pupae” value was determined as 4 fold. Further, the toxicity result with A. aegypti larvae is given as “No significant differences”. Besides, the toxicity result in the assay with A. castellanii is “No significant differences”. Moreover, in the assay with C. elegans fut-1(ok892) [4], the “additional time required to reach L4” value was “at least 24 h” and the “resistance to CCL2” value is recorded as “partial resistance”.

For the compound `CO[C@H]1O[C@H](CO)[C@H](O)[C@H](O)[C@H]1O` [GalOMe, methyl galactopyranoside], the Kd at Jacalin was 58 µM.

For the compound `CO[C@H]1O[C@H](CO[C@H]2O[C@H](CO)[C@@H](O)[C@H](O)[C@@H]2O)[C@@H](O)[C@H](O[C@H]2O[C@H](CO)[C@@H](O)[C@H](O)[C@@H]2O)[C@@H]1O` [Man1,6[Man1,3]ManOMe, Manα1,6[Manα1,3]Man methyl glycoside], the Kd at ConA was 2 µM.

Regarding `CC(=O)N[C@H]1[C@H](O[C@@H]2[C@H](O[C@]3(C(=O)O)C[C@H](O)[C@@H](NC(C)=O)[C@H]([C@H](O)[C@H](O)CO)O3)[C@@H](O)[C@H](O[C@H]3[C@H](O)[C@@H](O)C(O)O[C@@H]3CO)O[C@@H]2CO)O[C@H](CO)[C@H](O)[C@@H]1O[C@@H]1O[C@H](CO)[C@H](O)[C@H](O)[C@H]1O` (stereo partly drawn) [GM1os, GM1 ganglioside oligosaccharide], the Kd in [5] was 0.043 µM.

Take `CC(=O)N[C@H]1[C@H](O[C@H]2[C@H](O[C@@H]3O[C@@H](C)[C@@H](O)[C@@H](O)[C@@H]3O)[C@@H](NC(C)=O)[C@H](OCCCCCC(=O)O)O[C@@H]2CO)O[C@H](CO)[C@@H](O)[C@@H]1O` [GlcNAcβ1,4[Fucα1,3]GlcNAcβ1-sp, fucosylated chitobiose, GlcNAcβ1,4[Fucα1,3]GlcNAcβ-O(CH2)5COOH]: the dissociation constant Kd on Y57A is 10.9 µM; at W78A it was 62.9 µM; at L87A, 26.3 µM; on N90A, 6.7 µM; at N91A, 0.18 µM; at Y92A, above 500 µM. The dissociation constant (Kd) was determined as 27.2 µM on V93A, 310 µM on W94A and 1.5 µM at K109A.

(Values after paper PMC3355094 (PLoS Pathogens, 2012).)
